# Columns and labels:
# Type in all cases: cell-based, human
# [1] = tested on: Pre-Pro-ET-1 (PPET-1) gene; experiment: Real-Time RT-PCR specific for Pre-Pro-ET-1 (PPET-1) in ECV 304 cells; details: ECV304 cells with or without IL-1β 100 U/ml, aminaphtone 2; 4; 6, 6-12-24-36 hrs
# Protocol: (§1) Cell lines ECV 304: they are cells coming from umbilical cord of a new-born and spontaneously immortalized at the 136th step (distributed from Collection of Cell Cultures). Such cells were cultured in a complete medium consisted of: Medium 199, L-glutamine 1%, penicillin/streptomycin 10 (Invitrogen) with an addition of 10% FCS (fetal calf serum) (Hy-clone).
# b) Real-Time RT-PCR specific for Pre-Pro-ET-1 (PPET-1). The expression of PPET-1 gene was detected at 6-12-24-36 hrs, respectively, in samples: treated with IL-1β (100 U/ml); treated with IL-1β (100 U/ml) additioned with aminaphtone (2; 4; […]); non-stimulated by IL-1β but treated with aminaphtone alone. RT-PCR technique based on TaqMan technology was used (Applied Biosystems, Foster City, Calif.), through a sequence determination system ABI PRISM 7000 (Applied Biosystems). 2-4 μl were collected form each cDNA, diluted 1:5, in a final volume of 25 μl. […] The quantification of the specific mRNA PPET-1 was normalized for the constitutive gene expression glyceraldehyde-3-phosphate-dehydro-genase (GAPDH). Relative quantifications of the gene expression were made possible by the use of the comparative method CT (ΔΔCT). The CT value was defined as the number of PCR cycles required for overcome the fluorescence signal (defined as 10-fold the standard deviation of the basal variation). […]
# endothelin-1 (ET-1) = experiment: Endothelin-1 production from ECV 304 cells, EIA-kit on supernatants; details: aminaphtone 2, 4, 6 mcg/ml, dose-dependent
# Protocol: as §1
# a) EIA-kit—Supernatants of cell samples ECV304 were collected, cultured as above, treated with IL-1β at 100 U/ml over 6-12-24 and 36 hrs or with IL-1β at 100 U/ml additioned with aminaphtone at the concentration of 2; 4; 6 μg/ml, respectively. Moreover, samples non-stimulated with IL-1β were incubated with the addition of aminaphtone alone at 2; 4; 6 μg/ml.
# The concentration of ET-1 existing in the supernatants was quantified through Endothelin-1 EIA-Kit (CAYMAN Chemical) in an interval between 0 and 250 pg/ml. This immunometric test is based on the “sandwich” technique with a double antibody.
# [2] = tested on: E-selectine adhesive molecule CD62 (ELAM-1); experiment: Cytofluorometric quantitative analysis of E-selectine (ELAM-1) expression in ECV 304 cells; details: 48 hr
# Protocol: as §1
# Cytofluorometric quantitative analysis of aminaphtone effects on the E-selectine adhesive molecule expression CD62 (ELAM-1).
# Cells of the ECV304 line, cultured in 28 cm^2 Petri dishes, were stimulated with IL-1β at 100 U/ml (Roche) over 48 hrs in a complete medium and complete medium additioned with aminaphtone at the concentration of 2; 4; 5 μg/ml, respectively. Such concentrations are equivalent to concentrations reached “in vivo” through administration of Capillarema per os at the standard dosage of 3 capsules/day (capsules with 75 mg of active substance per day). Furthermore, cells untreated with IL-1β were incubated in a complete medium additioned with aminaphtone alone at the concentration of 4 μg/ml.
# Samples, after washing with PBS, were removed from the culture plates through a treatment with trypsin-EDTA. Adhesive molecules expression was detected through incubation over 20 min. with 7 μl/10^6 of human monoclonal antibody CD62-E-PECy5 (ELAM-1) (Becton-Dickinson). The binding specificity was ensured by the addition of the control […]. After washing and re-suspension in the fixing solution (1% paraformaldehyde, PFA in PBS), samples were analyzed in a flow cytometry with FACSdiva Software (Becton-Dickinson). Data were expressed as mean channel fluorescence and as fluorescence percentage of positive cells. All experiments were repeated 5 times on independent cell samples coming from different experimental sessions. Evaluation of endothelin production (ET-1).
smiles,measurement,setting,value
"Cc1cc(OC(=O)c2ccc(N)cc2)c2ccccc2c1O [aminaphtone, 2-hydroxy-3-methyl-1,4-naphthohydroquinone-2-p-aminobenzoate]",gene transcription of PRE-PRO-ET-1,[1],"trend, already observed at a level of gene transcription of PRE-PRO-ET-1"
same,ET-1 production (EIA-kit),"endothelin-1 (ET-1); ECV304 cells non-activated, culture medium alone, significant at 12 h (6 mcg/ml), 24 h and 36 h (4, 6 mcg/ml)",tends to reduce the ET-1 production
same,ET-1 production (EIA-kit),"endothelin-1 (ET-1); ECV304 cells stimulated with IL-1β 100 U/ml, 6-12-24-36 hrs, significant at 6 h (4, 6 mcg/ml), 12 h (4, 6 mcg/ml), 36 h (6 mcg/ml)",tends to reduce the ET-1 production
same,ELAM-1 % positive cells,"[2]; ECV304 cells + IL-1β 100 U/ml, aminaphtone 2 mcg/ml, IL-1β alone 38.4±3.7, p=n.s.",36.6±4.5%
same,"ELAM-1 membrane fluorescence, mean channel (MC), mean±standard deviation","[2]; ECV304 cells + IL-1β 100 U/ml, aminaphtone 2 mcg/ml, IL-1β alone 369.6±30.5, p<0.001",332.2±36.8
same,ELAM-1 % positive cells,"[2]; ECV304 cells + IL-1β 100 U/ml, aminaphtone 4 mcg/ml, IL-1β alone 38.4±3.7, p<0.001",28.2±2.9%
same,"ELAM-1 membrane fluorescence, mean channel (MC), mean±standard deviation","[2]; ECV304 cells + IL-1β 100 U/ml, aminaphtone 4 mcg/ml, IL-1β alone 369.6±30.5, p<0.001",278.4±16.2
same,ELAM-1 % positive cells,"[2]; ECV304 cells + IL-1β 100 U/ml, aminaphtone 5 mcg/ml, IL-1β alone 38.4±3.7, p<0.001",27.2±3.7%
same,"ELAM-1 membrane fluorescence, mean channel (MC), mean±standard deviation","[2]; ECV304 cells + IL-1β 100 U/ml, aminaphtone 5 mcg/ml, IL-1β alone 369.6±30.5, p<0.001",252.6±10.3
same,ELAM-1 % positive cells,"[2]; ECV304 cells not activated with IL-1β, aminaphtone 4 mcg/ml, medium alone 29.1±3.1, p<0.05",19.4±1.7%
same,"ELAM-1 membrane fluorescence, mean channel (MC), mean±standard deviation","[2]; ECV304 cells not activated with IL-1β, aminaphtone 4 mcg/ml, medium alone 250±22, p<0.05",219±8.3

# Reference: patent US10028929B2, “Method of treating raynaud's disease secondary to connectivitis using aminaphtone” (LABORATORI BALDACCI S.P.A., priority 2006, dated 2018)
